# Literature values, collected in patent publication US20050009919A1, “Treating cachexia and excessive catabolism with (-)-hydroxycitric acid” (priority 2003, published 2005).
Compound,"Appetite suppression in clinical trials (Heymsfield 1998, Mattes 2000)","Weight change in clinical trials (Heymsfield 1998, Mattes 2000)","Anorectic results in clinical trials (1.2 grams to 3 grams of HCA per day, divided doses before meals)"
"O=C(O)CC(O)(C(=O)O)C(O)C(=O)O (single isomer, unassigned; (-)) [HCA, (−)-Hydroxycitric acid]",failed to produce appetite suppression,not-statistically-significant trends toward weight elevation,–
calcium (−)-hydroxycitrate [reference compound],–,–,failed to produce anorectic results
